Measured values: ChEMBL document CHEMBL3286286, “2-(2-Arylphenyl)benzoxazole As a Novel Anti-Inflammatory Scaffold: Synthesis and Biological Evaluation” (ACS Med Chem Lett, 2014)
pIC50: −log10 of the molar value.

Legend:
Rattus norvegicus [1] = test: Antiinflammatory activity in Wistar albino rat assessed as reduction in carrageenan-induced hind paw volume at 12.5 mg/kg, ip administered 10 mins after carrageenan-challenge measured up to 3 hrs; assay type: functional; settings: route intraperitoneal
Rattus norvegicus [2] = test: Antiinflammatory activity in Wistar albino rat assessed as reduction in carrageenan-induced hind paw volume at 25 mg/kg, ip administered 10 mins after carrageenan-challenge measured up to 3 hrs; assay type: functional; settings: route intraperitoneal
[3] = target: T1, Prostaglandin G/H synthase 2 (Homo sapiens) (UniProt P35354); settings: at 10 µM
T1 sequence (whole entry): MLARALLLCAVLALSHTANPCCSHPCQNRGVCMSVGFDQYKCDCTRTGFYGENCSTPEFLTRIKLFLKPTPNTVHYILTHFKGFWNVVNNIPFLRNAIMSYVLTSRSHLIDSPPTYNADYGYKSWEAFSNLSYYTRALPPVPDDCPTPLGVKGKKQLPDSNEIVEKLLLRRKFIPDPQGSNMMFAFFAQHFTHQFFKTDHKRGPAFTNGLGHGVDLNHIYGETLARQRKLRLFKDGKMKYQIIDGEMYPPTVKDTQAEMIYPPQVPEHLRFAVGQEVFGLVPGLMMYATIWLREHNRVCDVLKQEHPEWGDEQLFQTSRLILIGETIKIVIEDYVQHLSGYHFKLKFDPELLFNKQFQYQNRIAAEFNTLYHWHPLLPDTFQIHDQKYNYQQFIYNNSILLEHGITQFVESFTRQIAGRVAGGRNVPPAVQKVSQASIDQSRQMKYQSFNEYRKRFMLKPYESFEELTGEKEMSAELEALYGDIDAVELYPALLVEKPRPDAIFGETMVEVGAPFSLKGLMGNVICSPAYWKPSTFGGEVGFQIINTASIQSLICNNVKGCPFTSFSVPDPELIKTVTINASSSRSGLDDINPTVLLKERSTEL
Description: Inhibition of human recombinant COX2 using arachidonic acid as substrate at 10 uM

[4] = Selectivity for human recombinant COX2 to ovine COX1
[5] = target: T2, Prostaglandin G/H synthase 1 (Ovis aries) (UniProt P05979); test: Inhibition of ovine COX1 using arachidonic acid as substrate at 10 uM
T2 sequence (whole entry): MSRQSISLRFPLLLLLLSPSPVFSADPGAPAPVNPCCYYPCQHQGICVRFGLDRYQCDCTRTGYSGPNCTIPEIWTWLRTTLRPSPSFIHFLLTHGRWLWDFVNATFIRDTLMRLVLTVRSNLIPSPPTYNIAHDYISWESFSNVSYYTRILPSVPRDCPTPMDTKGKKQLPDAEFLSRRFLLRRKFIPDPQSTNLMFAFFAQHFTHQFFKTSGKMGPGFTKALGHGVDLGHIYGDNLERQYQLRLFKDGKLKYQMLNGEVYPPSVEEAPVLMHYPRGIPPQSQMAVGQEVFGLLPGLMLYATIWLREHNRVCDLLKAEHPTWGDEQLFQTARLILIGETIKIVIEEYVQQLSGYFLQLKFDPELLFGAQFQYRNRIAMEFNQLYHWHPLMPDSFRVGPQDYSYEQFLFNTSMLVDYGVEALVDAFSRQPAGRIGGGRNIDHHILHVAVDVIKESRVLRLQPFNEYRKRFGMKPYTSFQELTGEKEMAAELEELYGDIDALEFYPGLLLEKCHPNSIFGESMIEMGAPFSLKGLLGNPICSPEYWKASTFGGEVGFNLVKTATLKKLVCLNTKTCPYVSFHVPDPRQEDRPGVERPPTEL

[6] = target: T3, Prostaglandin G/H synthase 1 (Ovis aries, UniProt P05979); test: Inhibition of ovine COX1 using arachidonic acid as substrate
T3 sequence (P05979 whole entry): T2 sequence (whole entry)

[7] = Selectivity index, ratio of IC50 for ovine COX1 to IC50 for human recombinant COX2
[8] = target: T4, Prostaglandin G/H synthase 2 (Homo sapiens, UniProt P35354); test: Inhibition of human recombinant COX2 using arachidonic acid as substrate
T4 sequence (P35354 whole entry): T1 sequence (whole entry)

inhibition [3] [%]	Selectivity ratio [4]	inhibition [5] [%]	pIC50 [6]	Ratio IC50 [7]	pIC50 [8]	SMILES	inhibition in vivo at 12.5 mg/kg (Rattus norvegicus [1]) [%]	inhibition in vivo at 25 mg/kg (Rattus norvegicus [2]) [%]
						Cc1ccc(-c2cc(C(F)(F)F)nn2-c2ccc(S(N)(=O)=O)cc2)cc1 [CELECOXIB]	60.6	74.6
59.9	0.8	74.9				COc1cccc(-c2ccccc2-c2nc3ccccc3o2)c1OC		
75.1	6.96	10.8	4.35	33.6	5.87	CS(=O)(=O)c1ccc(-c2ccccc2-c2nc3ccccc3o2)cc1	62.5	75
43.5	10.7	4.07				CSc1ccc(-c2ccccc2-c2nc3ccccc3o2)cc1		
14.8	0.78	19.1				COc1ccc(-c2ccccc2-c2nc3ccccc3o2)cc1		
14.8	0.87	17.1				COc1ccc(-c2ccccc2-c2nc3ccccc3o2)cc1OC1CCCC1		
40.9	4.83	8.46				N#Cc1ccc(-c2ccccc2-c2nc3ccccc3o2)cc1		
17	1.65	10.3				Clc1cc(-c2ccccc2-c2nc3ccccc3o2)ccc1OCc1ccccc1		
58	8.81	6.58				O=Cc1ccc(-c2ccccc2-c2nc3ccccc3o2)cc1		
94.9	12.6	7.56	4.33	113	6.39	Oc1ccc(-c2ccccc2-c2nc3ccccc3o2)cc1Cl	68.3	82.7
11.7	3.38	3.45				FC(F)(F)c1ccc(-c2ccccc2-c2nc3ccccc3o2)cc1		
86.6	1.49	58.2				COc1ccc(-c2ccccc2-c2nc3ccccc3o2)cc1OC		
33.9	15.5	2.19				CC(C)Oc1ccc(-c2ccccc2-c2nc3ccccc3o2)cc1Cl		
						O=C(O)Cc1ccccc1Nc1c(Cl)cccc1Cl [DICLOFENAC]	67.3	84.6
81.4	12.6	6.45	4.33	69.8	6.17	COc1ccc(-c2ccccc2-c2nc3ccccc3o2)cc1Cl	53.9	64.4
10.6	0.44	24				c1ccc(-c2ccccc2-c2nc3ccccc3o2)cc1		
8.46	1.57	1.65				Fc1ccc(-c2ccccc2-c2nc3ccccc3o2)cc1		
